# Source: PubChem BioAssay (NCI)
#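 GI50 is the concentration that inhibits growth by half. TGI denotes the concentration required for complete inhibition of growth.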
# Assays:
# Assay in all cases: NCI-60 cell line screen, 384-well format
# M14 melanoma = system: M14 melanoma
# HCC-2998 colon = system: HCC-2998 colon
# NCI-H322M lung = system: NCI-H322M lung
# A498 renal = system: A498 renal
# TK-10 renal = system: TK-10 renal
# NCI-H226 lung = system: NCI-H226 lung
# U251 glioblastoma = system: U251 glioblastoma
# SK-MEL-28 melanoma = system: SK-MEL-28 melanoma
# SNB-75 CNS = system: SNB-75 CNS
# DU-145 prostate = system: DU-145 prostate
# UACC-257 melanoma = system: UACC-257 melanoma
# SK-OV-3 ovarian = system: SK-OV-3 ovarian
# NCI-H522 lung = system: NCI-H522 lung
# MOLT-4 leukemia = system: MOLT-4 leukemia
# RPMI-8226 leukemia = system: RPMI-8226 leukemia
# SF-295 CNS = system: SF-295 CNS
# OVCAR-3 ovarian = system: OVCAR-3 ovarian
# HCT-116 colon = system: HCT-116 colon
# SF-268 CNS = system: SF-268 CNS
# NCI-H23 lung = system: NCI-H23 lung
# OVCAR-5 ovarian = system: OVCAR-5 ovarian
# MCF7 breast = system: MCF7 breast
# MDA-MB-231 breast = system: MDA-MB-231 breast
# IGROV1 ovarian = system: IGROV1 ovarian
# OVCAR-4 ovarian = system: OVCAR-4 ovarian
# NCI-H460 NSCLC = system: NCI-H460 NSCLC
# BT-549 breast = system: BT-549 breast
# UACC-62 melanoma = system: UACC-62 melanoma
# OVCAR-8 ovarian = system: OVCAR-8 ovarian
# CCRF-CEM leukemia = system: CCRF-CEM leukemia
# SN12C renal = system: SN12C renal
# KM12 colon = system: KM12 colon
# CAKI-1 renal = system: CAKI-1 renal
# HCT-15 colon = system: HCT-15 colon
# ACHN renal = system: ACHN renal
# MDA-MB-435 melanoma = system: MDA-MB-435 melanoma
# SW-620 colon = system: SW-620 colon
# UO-31 renal = system: UO-31 renal
# SK-MEL-5 melanoma = system: SK-MEL-5 melanoma
# COLO 205 colon = system: COLO 205 colon
# EKVX NSCLC = system: EKVX NSCLC
# NCI/ADR-RES ovarian = system: NCI/ADR-RES ovarian
# T-47D breast = system: T-47D breast
# HT29 colon = system: HT29 colon
# SNB-19 CNS = system: SNB-19 CNS
# A549 NSCLC = system: A549 NSCLC
# HOP-92 NSCLC = system: HOP-92 NSCLC
# K-562 leukemia = system: K-562 leukemia
# PC-3 prostate = system: PC-3 prostate
# MALME-3M melanoma = system: MALME-3M melanoma
# MDA-MB-468 breast = system: MDA-MB-468 breast
# 786-0 renal = system: 786-0 renal
# RXF 393 renal = system: RXF 393 renal
# HOP-62 NSCLC = system: HOP-62 NSCLC
# HS 578T breast = system: HS 578T breast
# SF-539 CNS = system: SF-539 CNS
# LOX IMVI melanoma = system: LOX IMVI melanoma
compound,measurement,setting,value
Cn1c(=O)c(F)c(Nc2ccc(I)cc2F)c2c(=O)n(C[C@@H](O)CO)cnc21,GI50,M14 melanoma,< 0.01 µM
same,TGI,M14 melanoma,< 0.01 µM
same,GI50,HCC-2998 colon,< 0.01 µM
same,TGI,HCC-2998 colon,0.0128 µM
same,GI50,NCI-H322M lung,0.0185 µM
same,TGI,NCI-H322M lung,16.6 µM
same,GI50,A498 renal,0.268 µM
same,TGI,A498 renal,12.6 µM
same,GI50,TK-10 renal,1.14 µM
same,TGI,TK-10 renal,16.9 µM
same,GI50,NCI-H226 lung,< 0.01 µM
same,TGI,NCI-H226 lung,5.39 µM
same,GI50,U251 glioblastoma,0.0603 µM
same,TGI,U251 glioblastoma,9.75 µM
same,GI50,SK-MEL-28 melanoma,< 0.01 µM
same,TGI,SK-MEL-28 melanoma,< 0.01 µM
same,GI50,SNB-75 CNS,0.32 µM
same,TGI,SNB-75 CNS,17.5 µM
same,GI50,DU-145 prostate,1.99 µM
same,TGI,DU-145 prostate,36.7 µM
same,GI50,UACC-257 melanoma,< 0.01 µM
same,TGI,UACC-257 melanoma,< 0.01 µM
same,GI50,SK-OV-3 ovarian,3.34 µM
same,TGI,SK-OV-3 ovarian,21.5 µM
same,GI50,NCI-H522 lung,0.929 µM
same,TGI,NCI-H522 lung,22.7 µM
same,GI50,MOLT-4 leukemia,4.01 µM
same,TGI,MOLT-4 leukemia,16.3 µM
same,GI50,RPMI-8226 leukemia,11.6 µM
same,TGI,RPMI-8226 leukemia,24.8 µM
same,GI50,SF-295 CNS,11.5 µM
same,TGI,SF-295 CNS,25.4 µM
same,GI50,OVCAR-3 ovarian,4.32 µM
same,TGI,OVCAR-3 ovarian,19.2 µM
same,GI50,HCT-116 colon,< 0.01 µM
same,TGI,HCT-116 colon,0.164 µM
same,GI50,SF-268 CNS,< 0.01 µM
same,TGI,SF-268 CNS,7.63 µM
same,GI50,NCI-H23 lung,< 0.01 µM
same,TGI,NCI-H23 lung,0.0296 µM
same,GI50,OVCAR-5 ovarian,< 0.01 µM
same,TGI,OVCAR-5 ovarian,16.9 µM
same,GI50,MCF7 breast,12.4 µM
same,TGI,MCF7 breast,29 µM
same,GI50,MDA-MB-231 breast,< 0.01 µM
same,TGI,MDA-MB-231 breast,1.11 µM
same,GI50,IGROV1 ovarian,< 0.01 µM
same,TGI,IGROV1 ovarian,1.11 µM
same,GI50,OVCAR-4 ovarian,15.6 µM
same,TGI,OVCAR-4 ovarian,55.8 µM
same,GI50,NCI-H460 NSCLC,< 0.01 µM
same,TGI,NCI-H460 NSCLC,30.6 µM
same,GI50,BT-549 breast,2.39 µM
same,TGI,BT-549 breast,23.5 µM
same,GI50,UACC-62 melanoma,< 0.01 µM
same,TGI,UACC-62 melanoma,< 0.01 µM
same,GI50,OVCAR-8 ovarian,3.68 µM
same,TGI,OVCAR-8 ovarian,18.6 µM
same,GI50,CCRF-CEM leukemia,10.6 µM
same,TGI,CCRF-CEM leukemia,22.8 µM
same,GI50,SN12C renal,< 0.01 µM
same,TGI,SN12C renal,17.2 µM
same,GI50,KM12 colon,< 0.01 µM
same,TGI,KM12 colon,13.6 µM
same,GI50,CAKI-1 renal,0.0133 µM
same,TGI,CAKI-1 renal,19.2 µM
same,GI50,HCT-15 colon,0.466 µM
same,TGI,HCT-15 colon,19.6 µM
same,GI50,ACHN renal,1.09 µM
same,TGI,ACHN renal,26.9 µM
same,GI50,MDA-MB-435 melanoma,< 0.01 µM
same,TGI,MDA-MB-435 melanoma,19.9 µM
same,GI50,SW-620 colon,< 0.01 µM
same,TGI,SW-620 colon,11.5 µM
same,GI50,UO-31 renal,0.181 µM
same,TGI,UO-31 renal,1.77 µM
same,GI50,SK-MEL-5 melanoma,< 0.01 µM
same,TGI,SK-MEL-5 melanoma,10.7 µM
same,GI50,COLO 205 colon,< 0.01 µM
same,TGI,COLO 205 colon,< 0.01 µM
same,GI50,EKVX NSCLC,2.08 µM
same,TGI,EKVX NSCLC,25.5 µM
same,GI50,NCI/ADR-RES ovarian,12.7 µM
same,TGI,NCI/ADR-RES ovarian,44.6 µM
same,GI50,T-47D breast,1.53 µM
same,TGI,T-47D breast,22.6 µM
same,GI50,HT29 colon,< 0.01 µM
same,TGI,HT29 colon,11.6 µM
same,GI50,SNB-19 CNS,0.783 µM
same,TGI,SNB-19 CNS,34.5 µM
same,GI50,A549 NSCLC,< 0.01 µM
same,TGI,A549 NSCLC,9.91 µM
same,GI50,HOP-92 NSCLC,< 0.01 µM
same,TGI,HOP-92 NSCLC,0.179 µM
same,GI50,K-562 leukemia,0.011 µM
same,TGI,K-562 leukemia,15.5 µM
same,GI50,PC-3 prostate,18.5 µM
same,TGI,PC-3 prostate,53.2 µM
same,GI50,MALME-3M melanoma,< 0.01 µM
same,TGI,MALME-3M melanoma,< 0.01 µM
same,GI50,MDA-MB-468 breast,0.387 µM
same,TGI,MDA-MB-468 breast,1.62 µM
same,GI50,786-0 renal,1.62 µM
same,TGI,786-0 renal,17.9 µM
same,GI50,RXF 393 renal,0.191 µM
same,TGI,RXF 393 renal,10.4 µM
same,GI50,HOP-62 NSCLC,< 0.01 µM
same,TGI,HOP-62 NSCLC,25.2 µM
same,GI50,HS 578T breast,0.184 µM
same,TGI,HS 578T breast,11 µM
same,GI50,SF-539 CNS,0.215 µM
same,TGI,SF-539 CNS,10.6 µM
same,GI50,LOX IMVI melanoma,< 0.01 µM
same,TGI,LOX IMVI melanoma,0.137 µM
